In patent US9321764B2, “Dihydro-pyrrolopyridinone inhibitors” (AbbVie Inc., priority 2013, dated 2016):
Where two headings read alike, the source gives them in different places. Each block holds one compound with its values, some of them ahead of it.

Legend:
[1] = tested on: LPS induced IL-6 production; assay: LPS (lipopolysaccharide) induced IL-6 production mouse assay; assay type: in vivo; settings: read-out: Inhibition of LPS induced IL-6 production, % inhibition at 3 mg/kg, 3 mg/kg oral, one hour before LPS 2.5 mg/kg i.p., serum IL-6 2 hours after LPS, SCID female mice, all p < 0.05
Experimental: Compounds of the Examples listed in Table 2 were assayed for their ability to inhibit LPS (lipopolysaccharide) induced IL-6 (Interleukin-6) production in mice. Fox Chase SCID® female mice (Charles Rivers Labs, 5 per group) received an intraperitoneal challenge of lipopolysaccharide (2.5 mg/kg, L2630 E. coli 0111:B4) one hour after oral administration of compounds. Mice were euthanized 2 hours after lipopolysaccharide injection, blood was removed by cardiac puncture, and then the serum harvested from the blood samples was frozen at −80° C. On the day of the assay the serum samples were brought to room temperature and then diluted 1:20 in phosphate-buffered saline containing 2% bovine serum albumin. Interleukin-6 measurements were performed using a cytokine assay from Meso Scale Discovery (Gaithersburg, Md.) for mouse serum analysis according to the manufacturer's protocol and read on a SECTOR Imager 6000 (Meso Scale Discovery, Gaithersburg, Md.) instrument. Statistical analysis was performed using Prism software (version 5.0) incorporating Dunnett's one way ANOVA. The IL-6 mean and standard deviation of the group of vehicle treated animals were compared with the IL-6 mean and standard deviation of the group treated with drug. A p value <0.05 means that there is less than a 5% probability that the mean values in the two groups are equal.

BRD4 (BDII_E352-M457) = target: T1, BRD4 (BDII_E352-M457) (Homo sapiens, UniProt O60885); assay: TR-FRET bromodomain binding assay, second bromodomain of BRD4; settings: His-tagged BD2, 30 nM Alexa647 probe; TR-FRET protocol A-E given per row
T1 construct: proliferation; Protocol; made in house
Method in brief: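 His-tagged BRD4 BD2 ([…]) competed against an Alexa647-labelled BET-inhibitor probe in TR-FRET. Buffer was 20 mM sodium phosphate pH 6.0, 50 mM NaCl, 1 mM EDTA, 0.01% Triton X-100, 1 mM DTT, with method D DMSO series of 2.5 mM–800 nM (stock range). IC50 from 4-parameter fit, Ki from probe Kd and concentration.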

[2] = tested on: breast cancer cell line MX-1; assay: MX-1 cell line proliferation assay; assay type: cell-based; settings: MX-1 cells, 3-day proliferation assay, Cell Titer Glo, read-out: Cellular proliferation EC50
Method in brief: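 Final compound concentrations spanned 0.0001 to 3 μM, added to 5000 cells/well plated the previous night in RPMI 1640 plus 10% FBS at 37 °C.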

BRD4 (BDI_K57-E168) = target: T2, BRD4 (BDI_K57-E168) (Homo sapiens, UniProt O60885); assay: TR-FRET bromodomain binding assay, first bromodomain of BRD4; settings: His-tagged BD1, 100 nM Alexa647 probe; TR-FRET protocol A-E given per row
T2 construct: BD1: amino acids K57-E168; made in house
Method in brief: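 Ki values come from IC50s (4-parameter logistic) corrected for probe Kd and concentration, normalised to no-compound and 1 μM unlabelled probe controls. Probe displacement by TR-FRET used 8 nM BD1 (K57-E168), 100 nM Alexa647 probe, 1 nM Eu-anti-His, 20 mM phosphate pH 6.0, 2% DMSO, 1 h, room temperature.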

SMILES: Cn1cc(-c2cc(CS(C)(=O)=O)cnc2Oc2ccc(F)cc2F)c2cc[nH]c(=O)c21 [Example 60, 3-{2-(2,4-difluorophenoxy)-5-[(methylsulfonyl)methyl]pyridin-3-yl}-1-methyl-1,6-dihydro-7H-pyrrolo[2,3-c]pyridin-7-one]
inhibition in vivo at 3 mg/kg [1]: 62% | Ki (BRD4 (BDII_E352-M457)): 6.2 nM | EC50 ([2]; Homo sapiens, MX1, 72 h): 37 nM | Ki (BRD4 (BDI_K57-E168)): 16 nM

SMILES: CCS(=O)(=O)Cc1ccc(Oc2ccc(F)cc2F)c(-c2cn(C)c3c(=O)[nH]ccc23)c1 [Example 53, 3-{2-(2,4-difluorophenoxy)-5-[(ethylsulfonyl)methyl]phenyl}-1-methyl-1,6-dihydro-7H-pyrrolo[2,3-c]pyridin-7-one]
inhibition in vivo at 3 mg/kg [1]: 74% | Ki (BRD4 (BDII_E352-M457)): 6.6 nM | EC50 ([2]; Homo sapiens, MX1, 72 h): 39 nM | Ki (BRD4 (BDI_K57-E168)): 3.2 nM

SMILES: Cn1cc(-c2cc(S(C)(=O)=O)ccc2OC2CCC(F)(F)CC2)c2cc[nH]c(=O)c21 [Example 25, 3-{2-[(4,4-difluorocyclohexyl)oxy]-5-(methylsulfonyl)phenyl}-1-methyl-1,6-dihydro-7H-pyrrolo[2,3-c]pyridin-7-one]
inhibition in vivo at 3 mg/kg [1]: 62% | Ki (BRD4 (BDII_E352-M457)): 60 nM | EC50 ([2]; Homo sapiens, MX1, 72 h): 80 nM | Ki (BRD4 (BDI_K57-E168)): 14 nM

SMILES: CCS(=O)(=O)c1ccc(Oc2ccccc2C#N)c(-c2cn(C)c3c(=O)[nH]ccc23)c1 [Example 83, 2-[4-(ethylsulfonyl)-2-(1-methyl-7-oxo-6,7-dihydro-1H-pyrrolo[2,3-c]pyridin-3-yl)phenoxy]benzonitrile]
Ki (BRD4 (BDII_E352-M457)): 46 nM | EC50 ([2]; Homo sapiens, MX1, 72 h): 100 nM | Ki (BRD4 (BDI_K57-E168)): 43 nM

SMILES: Cn1cc(-c2cc(S(C)(=O)=O)ccc2NCC2CC2)c2cc[nH]c(=O)c21 [Example 44, 3-{2-[(cyclopropylmethyl)amino]-5-(methylsulfonyl)phenyl}-1-methyl-1,6-dihydro-7H-pyrrolo[2,3-c]pyridin-7-one]
Ki (BRD4 (BDII_E352-M457)): 89 nM | EC50 ([2]; Homo sapiens, MX1, 72 h): 136 nM | Ki (BRD4 (BDI_K57-E168)): 14 nM

SMILES: CCS(=O)(=O)c1ccc(Oc2ccc(C)cc2Cl)c(-c2cn(C)c3c(=O)[nH]ccc23)c1 [Example 73, 3-[2-(2-chloro-4-methylphenoxy)-5-(ethylsulfonyl)phenyl]-1-methyl-1,6-dihydro-7H-pyrrolo[2,3-c]pyridin-7-one]
Ki (BRD4 (BDII_E352-M457)): 21 nM | EC50 ([2]; Homo sapiens, MX1, 72 h): 194 nM | Ki (BRD4 (BDI_K57-E168)): 43 nM

SMILES: Cn1cc(-c2cc(CS(=O)(=O)NC3CCCCC3)ccc2Oc2ccc(F)cc2F)c2cc[nH]c(=O)c21 [Example 102, N-cyclohexyl-1-[4-(2,4-difluorophenoxy)-3-(1-methyl-7-oxo-6,7-dihydro-1H-pyrrolo[2,3-c]pyridin-3-yl)phenyl]methanesulfonamide]
Ki (BRD4 (BDII_E352-M457)): 81 nM | EC50 ([2]; Homo sapiens, MX1, 72 h): 739 nM | Ki (BRD4 (BDI_K57-E168)): 95 nM

SMILES: CCS(=O)(=O)c1ccc(Oc2ccc(C#N)cc2)c(-c2cn(C)c3c(=O)[nH]ccc23)c1 [Example 78, 4-[4-(ethylsulfonyl)-2-(1-methyl-7-oxo-6,7-dihydro-1H-pyrrolo[2,3-c]pyridin-3-yl)phenoxy]benzonitrile]
Ki (BRD4 (BDII_E352-M457)): 73 nM | EC50 ([2]; Homo sapiens, MX1, 72 h): 88 nM | Ki (BRD4 (BDI_K57-E168)): 20 nM

SMILES: Cn1cc(-c2cc(S(C)(=O)=O)ccc2OCC2COC2)c2cc[nH]c(=O)c21 [Example 30, 1-methyl-3-[5-(methylsulfonyl)-2-(oxetan-3-ylmethoxy)phenyl]-1,6-dihydro-7H-pyrrolo[2,3-c]pyridin-7-one]
Ki (BRD4 (BDII_E352-M457)): 312 nM | EC50 ([2]; Homo sapiens, MX1, 72 h): > 3000 nM | Ki (BRD4 (BDI_K57-E168)): 45 nM

SMILES: CCS(=O)(=O)C(C)c1ccc(Oc2ccc(F)cc2F)c(-c2cn(C)c3c(=O)[nH]ccc23)c1 (single isomer, unassigned) [Example 57]
Ki (BRD4 (BDII_E352-M457)): 37 nM | EC50 [2]: 66 nM | Ki (BRD4 (BDI_K57-E168)): 14 nM

SMILES: CCS(=O)(=O)C(C)c1ccc(Oc2ccc(F)cc2F)c(-c2cn(C)c3c(=O)[nH]ccc23)c1 (stereo not drawn) [Example 55, 3-{2-(2,4-difluorophenoxy)-5-[1-(ethylsulfonyl)ethyl]phenyl}-1-methyl-1,6-dihydro-7H-pyrrolo[2,3-c]pyridin-7-one]
Ki (BRD4 (BDII_E352-M457)): 9.9 nM | EC50 ([2]; Homo sapiens, MX1, 72 h): 29 nM | Ki (BRD4 (BDI_K57-E168)): 4.2 nM

SMILES: Cn1cc(-c2cc(S(C)(=O)=O)ccc2OCC2CCC2)c2cc[nH]c(=O)c21 [Example 28, 3-[2-(cyclobutylmethoxy)-5-(methylsulfonyl)phenyl]-1-methyl-1,6-dihydro-7H-pyrrolo[2,3-c]pyridin-7-one]
Ki (BRD4 (BDII_E352-M457)): 53 nM | EC50 ([2]; Homo sapiens, MX1, 72 h): 129 nM | Ki (BRD4 (BDI_K57-E168)): 9.3 nM

Next, values leading:

Ki (BRD4 (BDII_E352-M457)): 384 nM | EC50 ([2]; Homo sapiens, MX1, 72 h): 198 nM | Ki (BRD4 (BDI_K57-E168)): 176 nM
SMILES: Cc1nn(-c2ccccc2)c(Cl)c1CNc1ccc(Oc2ccc(F)cc2F)c(-c2cn(C)c3c(=O)[nH]ccc23)c1 [Example 171, 3-[5-{[(5-chloro-3-methyl-1-phenyl-1H-pyrazol-4-yl)methyl]amino}-2-(2,4-difluorophenoxy)phenyl]-1-methyl-1,6-dihydro-7H-pyrrolo[2,3-c]pyridin-7-one]

Ki (BRD4 (BDII_E352-M457)): 1240 nM | EC50 ([2]; Homo sapiens, MX1, 72 h): 658 nM | Ki (BRD4 (BDI_K57-E168)): 249 nM
SMILES: Cc1ccc(CS(=O)(=O)NCc2ccc(Oc3ccc(F)cc3F)c(-c3cn(C)c4c(=O)[nH]ccc34)c2)cc1 [Example 132, N-[4-(2,4-difluorophenoxy)-3-(1-methyl-7-oxo-6,7-dihydro-1H-pyrrolo[2,3-c]pyridin-3-yl)benzyl]-1-(4-methylphenyl)methanesulfonamide]

Ki (BRD4 (BDII_E352-M457)): 2680 nM | EC50 ([2]; Homo sapiens, MX1, 72 h): 1680 nM | Ki (BRD4 (BDI_K57-E168)): 49 nM
SMILES: Cn1cc(-c2cc(CNS(=O)(=O)Cc3ccc(C(F)(F)F)cc3)ccc2Oc2ccc(F)cc2F)c2cc[nH]c(=O)c21 [Example 133, N-[4-(2,4-difluorophenoxy)-3-(1-methyl-7-oxo-6,7-dihydro-1H-pyrrolo[2,3-c]pyridin-3-yl)benzyl]-1-[4-(trifluoromethyl)phenyl]methanesulfonamide]

Ki (BRD4 (BDII_E352-M457)): 382 nM | EC50 ([2]; Homo sapiens, MX1, 72 h): 1510 nM | Ki (BRD4 (BDI_K57-E168)): 776 nM
SMILES: Cn1cc(-c2cc(CNCC3CC3)ccc2Oc2ccc(F)cc2F)c2cc[nH]c(=O)c21 [Example 118, 3-[5-{[(cyclopropylmethyl)amino]methyl}-2-(2,4-difluorophenoxy)phenyl]-1-methyl-1,6-dihydro-7H-pyrrolo[2,3-c]pyridin-7-one]

Ki (BRD4 (BDII_E352-M457)): 13.4 nM | EC50 ([2]; Homo sapiens, MX1, 72 h): 356 nM | Ki (BRD4 (BDI_K57-E168)): 2.63 nM
SMILES: CCS(=O)(=O)Nc1ccc(Oc2ccc(F)cc2F)c(-c2cn(C)c3c(=O)[nH]c(C4CCNCC4)cc23)c1 [Example 183, N-{4-(2,4-difluorophenoxy)-3-[1-methyl-7-oxo-5-(piperidin-4-yl)-6,7-dihydro-1H-pyrrolo[2,3-c]pyridin-3-yl]phenyl}ethanesulfonamide]

Ki (BRD4 (BDII_E352-M457)): 239 nM | EC50 ([2]; Homo sapiens, MX1, 72 h): 233 nM | Ki (BRD4 (BDI_K57-E168)): 30.8 nM
SMILES: Cn1cc(-c2cc(NCc3ccccc3C#N)ccc2Oc2ccc(F)cc2F)c2cc[nH]c(=O)c21 [Example 178, 2-({[4-(2,4-difluorophenoxy)-3-(1-methyl-7-oxo-6,7-dihydro-1H-pyrrolo[2,3-c]pyridin-3-yl)phenyl]amino}methyl)benzonitrile]

Ki (BRD4 (BDII_E352-M457)): 4.56 nM | EC50 ([2]; Homo sapiens, MX1, 72 h): 43.6 nM | Ki (BRD4 (BDI_K57-E168)): 3.24 nM
SMILES: CCS(=O)(=O)Nc1ccc(Oc2ccc(F)cc2F)c(-c2cn(C)c3c(=O)[nH]c(C(=O)NC)cc23)c1 [Example 200, 3-{2-(2,4-difluorophenoxy)-5-[(ethylsulfonyl)amino]phenyl}-N,1-dimethyl-7-oxo-6,7-dihydro-1H-pyrrolo[2,3-c]pyridine-5-carboxamide]

Ki (BRD4 (BDII_E352-M457)): 8.82 nM | EC50 ([2]; Homo sapiens, MX1, 72 h): 77.9 nM | Ki (BRD4 (BDI_K57-E168)): 1.95 nM
SMILES: CCS(=O)(=O)Nc1ccc(Oc2ccc(F)cc2F)c(-c2cn(C)c3c(=O)[nH]c(C(=O)NCC#N)cc23)c1 [Example 189, N-(cyanomethyl)-3-{2-(2,4-difluorophenoxy)-5-[(ethylsulfonyl)amino]phenyl}-1-methyl-7-oxo-6,7-dihydro-1H-pyrrolo[2,3-c]pyridine-5-carboxamide]

Ki (BRD4 (BDII_E352-M457)): 506 nM | EC50 ([2]; Homo sapiens, MX1, 72 h): 1630 nM | Ki (BRD4 (BDI_K57-E168)): 583 nM
SMILES: CN(C)C1CCN(Cc2ccc(Oc3ccc(F)cc3F)c(-c3cn(C)c4c(=O)[nH]ccc34)c2)CC1 [Example 113, 3-[2-(2,4-difluorophenoxy)-5-{[4-(dimethylamino)piperidin-1-yl]methyl}phenyl]-1-methyl-1,6-dihydro-7H-pyrrolo[2,3-c]pyridin-7-one]
